The values that follow come from patent US20230045616A1, “CANCER TREATMENT METHOD AND MEDICINE” (Nonprofit Organization North East Japan Study Group, priority 2019, published 2023).

“Also recorded” adds a separate entry of the source.

The test has as its system lung cancer. Kind of test: CT / X-ray images of cancer tissue in treated lung cancer patients (case reports). The test is classed as in vivo, human.

For nivolumab, for the setting “Example 3 patient, nivolumab after administration of Extract Z, FIG. 5”, the “cancer tissue in CT images after the treatment” value is recorded as “almost eliminated”. Further, under “Example 23 patient, nivolumab alone 240 mg every 2 weeks from September, 2017, progression observed on Nov. 6, 2020”, the “primary foci and lymph node metastasis” value was “primary foci were almost eliminated and metastasis to the lymph nodes was eliminated”. Besides, the “swelling in the cervical lymph node (CT images)” value (nivolumab 240 mg every 2 weeks continued after radiation of 30 Gy/10 fr to the cervical lymph node, stage IVb lung cancer patient) was “suppressed (April and October, 2019) and partially remitted; also recorded: suppressed (May, 2019) and partially remitted”. The “swelling in the cervical lymph node to which cancer had been metastasized (CT images)” value (nivolumab alone, 240 mg per dose i.v. drip at an interval of 2 weeks, stage IVb lung cancer patient without driver gene mutation) was “progressed”.
